Structures are written as SMILES. Positions of bridges follow the written chain, without caps; N, C: chain ends. Non-standard residues stand in square brackets, D forms with d. Residues, ends and D or L forms follow the SMILES beside them. Trp(6-Cl) = N[C@@H](Cc1c[nH]c2cc(Cl)ccc12)C(=O)O; Phe(3,4-Cl2) = N[C@@H](Cc1ccc(Cl)c(Cl)c1)C(=O)O; 2Nal = N[C@@H](Cc1ccc2ccccc2c1)C(=O)O; His(π-Me) = Cn1cncc1C[C@H](N)C(=O)O; hPhe = N[C@@H](CCc1ccccc1)C(=O)O; Phg = N[C@H](C(=O)O)c1ccccc1; Tle = CC(C)(C)[C@H](N)C(=O)O; Nle = CCCC[C@H](N)C(=O)O

human TSP1, sequence (P07996 19-1170 limits assumed): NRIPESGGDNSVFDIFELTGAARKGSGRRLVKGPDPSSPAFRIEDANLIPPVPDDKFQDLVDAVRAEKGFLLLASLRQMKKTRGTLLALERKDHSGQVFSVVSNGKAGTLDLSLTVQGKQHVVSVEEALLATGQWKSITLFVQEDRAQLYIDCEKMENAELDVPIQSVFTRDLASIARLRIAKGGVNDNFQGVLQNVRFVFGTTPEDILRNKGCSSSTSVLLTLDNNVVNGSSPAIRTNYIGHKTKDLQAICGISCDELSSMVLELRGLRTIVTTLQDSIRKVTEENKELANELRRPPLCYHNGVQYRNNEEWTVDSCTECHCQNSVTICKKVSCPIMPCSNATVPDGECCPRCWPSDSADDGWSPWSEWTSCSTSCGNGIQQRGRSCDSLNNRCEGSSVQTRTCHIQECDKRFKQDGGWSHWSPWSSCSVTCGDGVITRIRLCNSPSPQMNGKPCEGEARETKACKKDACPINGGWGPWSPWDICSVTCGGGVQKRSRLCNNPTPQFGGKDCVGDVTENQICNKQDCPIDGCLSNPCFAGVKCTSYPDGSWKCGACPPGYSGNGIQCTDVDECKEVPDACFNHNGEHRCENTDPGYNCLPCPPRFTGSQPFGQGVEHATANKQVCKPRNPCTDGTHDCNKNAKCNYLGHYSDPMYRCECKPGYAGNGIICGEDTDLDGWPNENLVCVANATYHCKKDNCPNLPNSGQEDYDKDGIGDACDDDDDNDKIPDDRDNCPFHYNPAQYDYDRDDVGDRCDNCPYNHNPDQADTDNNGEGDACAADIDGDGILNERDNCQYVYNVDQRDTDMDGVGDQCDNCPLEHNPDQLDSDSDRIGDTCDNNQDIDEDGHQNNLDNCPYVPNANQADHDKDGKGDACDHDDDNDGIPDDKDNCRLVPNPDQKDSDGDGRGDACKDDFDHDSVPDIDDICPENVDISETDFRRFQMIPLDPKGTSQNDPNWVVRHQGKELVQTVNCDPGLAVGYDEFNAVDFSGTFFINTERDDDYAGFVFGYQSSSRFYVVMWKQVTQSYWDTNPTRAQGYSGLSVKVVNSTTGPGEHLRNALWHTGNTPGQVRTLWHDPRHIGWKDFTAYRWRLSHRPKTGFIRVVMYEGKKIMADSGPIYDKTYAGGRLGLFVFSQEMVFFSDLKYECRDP

One experiment concerns the target human TSP1 (Homo sapiens, UniProt P07996). Nature of the experiment: Cell adhesion inhibition assay (HUVEC adhesion to TSP1-coated plate). The class given is cell-based. Particulars: HUVEC adhesion to TSP1-coated plate; read-out: cell adhesion inhibition (Table 4). How it is done:
As referred to herein, the TSP1 inhibitory activity refers to the activity to inhibit one or more effects of TSP1, including angiostatic effect. The TSP1 inhibitory activity is measured by a cell adhesion inhibition assay using human TSP1 and vascular endothelial cells as described hereinbelow in the Examples section. In this assay, when the 50% inhibitory concentration (IC5O) of a test substance is 200 nM or less, the test substance is determined to have TSP1 inhibitory activity.
(Test Example 1) Cell Adhesion Inhibition Assay
I. Materials and Reagents
96 well Non-treated White with clear bottom (Coster, 3632)
BrightMax adhesive sealing films (EXCEL Scientific, WT50)
Proteosave®SS 15 mL (Sumitomo Bakelite, MS-52150)
Thrombospondin human platelet (Calbiochem, 605225)
EGM-2 MV (Lonza, CC-3202): for HUVEC passaging
Collagen coated dish (IWAKI, 4020-010): for HUVEC passaging
Lipidure®-BL802 (NOF Corporation), 5% solution
Albumin solution (35%) fraction V from Bovine (Sigma, A7979)
CellTiter-Glo (Promega, G7572)
Thrombospondin 1 vial (25 μg) was dissolved in TBS (+2 mM CaCl2; the same shall apply hereunder) to make a 200 μg/mL solution, which was diluted with TBS to a concentration of 10 μg/mL in Proteosave® 15 mL tube. The 10 μg/mL solution was dispensed into a 96 well plate at a volume of 50 μL/well (no reservoir was used since the protein easily adsorbs on it), and the plate was left to stand at 4° C. overnight.
Lipidure® was diluted 10-fold with TBS to make a 0.5% solution. After a buffer was discarded from the plate that had been coated at the step of <Plate coat> as described above, the 0.5% solution was dispensed into all wells to be used at a volume of 100 μL/well, and the plate was left to stand at room temperature for 1 hour.
A 0.2 μM solution of each sample was prepared using a dilution buffer (DMEM+0.5% BSA). 2 μL of the 0.2 μM solution was diluted with 500 μL, of dilution buffer to prepare a diluted sample. As a vehicle control, DMSO was diluted in the same way as the samples.
A blocking solution was discarded from the plate that had been treated at the step of <Plate blocking> as described above, and the plate was washed three times with 150 μL/well of TBS. The washing solution used for the third washing was completely sucked out by an aspirator, and the diluted sample was dispensed into the plate at a volume of 50 μL/well. Then, the plate was left to stand at room temperature for 15 to 30 minutes.
To maintain HUVECs, EGM2-MV and a collagen coated dish were used (the cells were ceased to be used after 10th or 1 lth passage since the cell proliferation rate declined at this stage). The cells were dispersed with 0.05% Trypsin/EDTA, harvested in DMEM/0.5% BSA, and centrifuged at 1000 rpm for 3 minutes. After removal of supernatant, the cells were washed once with a DMEM buffer. The cells were resuspended in a DMEM buffer, counted for cell number, and diluted to 10000 cells/50 μL. The cell suspension was dispensed at a volume of 50 μL/well into the plate into which the sample had been dispensed, mixed gently, and incubated at 37° C. for 2.5 hours.
After cell adhesion was confirmed, the culture medium was completely removed by an aspirator, and 100 μL/well of DMEM/0.5% BSA was gently dispensed. Then, DMEM/0.5% BSA was completely removed by an aspirator, and 50 μL/well of DMEM/0.5% BSA was dispensed. After a white seal was applied to the bottom of the plate, 50 μL/well of CellTiter-Glo® was dispensed, and the solution was stirred for 2 minutes and left to stand at room temperature for 8 minutes. […] was detected using EnVision Xcite Multilabel Reader (produced by Perkin Elmer).
On the basis of the measured fluorescence values, the IC50 values (nM) of the different macrocyclic polypeptides for inhibition of cell adhesion were calculated.
As to `CCCC[C@@H]1NC(=O)[C@H](Cc2c[nH]c3ccccc23)NC(=O)[C@H](CC(=O)O)NC(=O)[C@H](CCCNC(=N)N)NC(=O)CNC(=O)[C@H](CO)NC(=O)[C@H]([C@@H](C)CC)NC(=O)[C@H](Cc2ccc3ccccc3c2)NC(=O)[C@H](CCCCN)NC(=O)CSC[C@@H](C(N)=O)NC(=O)[C@H](C(C)C)NC(=O)[C@H](Cc2c[nH]c3ccccc23)NC(=O)[C@H](CCCCN)NC1=O` [Compound 90] ({CH2CO}-K[2Nal]ISGRDW[Nle]KWVC-NH2; thioether N-13), the IC50 came out at 17.2 nM.

Regarding `CCCC[C@@H]1NC(=O)[C@H](Cc2c[nH]c3ccccc23)NC(=O)[C@H](CC(=O)O)NC(=O)[C@H](Cc2c[nH]cn2)NC(=O)CNC(=O)[C@H](CO)NC(=O)[C@H](CCCNC(=N)N)NC(=O)[C@H](Cc2ccc3ccccc3c2)NC(=O)CSC[C@@H](C(N)=O)NC(=O)[C@H](C(C)C)NC(=O)[C@H](Cc2c[nH]c3ccccc23)NC(=O)[C@H](C(C)C)NC1=O` [Compound 101] ({CH2CO}-[2Nal]RSGHDW[Nle]VWVC-NH2; thioether N-12), the IC50 stood at 19.6 nM. Same read-out and setting: the result for `CCCC[C@@H]1NC(=O)[C@H](Cc2c[nH]c3ccccc23)NC(=O)[C@H](CC(=O)O)NC(=O)[C@H](CCCNC(=N)N)NC(=O)CNC(=O)[C@H](CO)NC(=O)[C@H]([C@@H](C)CC)NC(=O)[C@H](Cc2ccc3ccccc3c2)NC(=O)[C@H]([C@@H](C)O)NC(=O)CSC[C@@H](C(N)=O)NC(=O)[C@H](C(C)C)NC(=O)[C@H](Cc2c[nH]c3ccccc23)NC(=O)[C@H](CCCCN)NC1=O` [Compound 85] ({CH2CO}-T[2Nal]ISGRDW[Nle]KWVC-NH2; thioether N-13) reads 15.5 nM.

The same experiment, now with this note: HUVEC adhesion to human platelet thrombospondin-coated plate, 2.5 hours, CellTiter-Glo; read-out: Cell adhesion IC50.
In the case of `CC[C@H](C)[C@@H]1NC(=O)[C@H](Cc2ccc3ccccc3c2)NC(=O)CSC[C@@H](C(N)=O)NC(=O)[C@H](C(C)C)NC(=O)[C@H](Cc2c[nH]c3cc(Cl)ccc23)NC(=O)[C@H](CCCCN)NC(=O)[C@H](C(C)C)NC(=O)[C@H](Cc2c[nH]c3ccccc23)NC(=O)[C@H](CC(N)=O)NC(=O)[C@H](CCCNC(=N)N)NC(=O)CNC(=O)[C@H](CO)NC1=O` [Compound 36] ({CH2CO}-[2Nal]ISGRNWVK[Trp(6-Cl)]VC-NH2; thioether N-12), the IC50 turned out to be 17.2 nM. Same read-out and setting: the value for `CC[C@H](C)[C@@H]1NC(=O)[C@H](Cc2ccc3ccccc3c2)NC(=O)CSC[C@@H](C(N)=O)NC(=O)[C@H](CCc2ccccc2)NC(=O)[C@H](Cc2c[nH]c3ccccc23)NC(=O)[C@H](CCCCN)NC(=O)[C@H](C(C)C)NC(=O)[C@H](Cc2c[nH]c3ccccc23)NC(=O)[C@H](CC(N)=O)NC(=O)[C@H](CCCNC(=N)N)NC(=O)CNC(=O)[C@H](CO)NC1=O` [Compound 37] ({CH2CO}-[2Nal]ISGRNWVKW[hPhe]C-NH2; thioether N-12) was 19.6 nM; that for `CC(C)[C@@H]1NC(=O)[C@H](Cc2c[nH]c3ccccc23)NC(=O)[C@H](CCCCN)NC(=O)[C@H](C(C)C)NC(=O)[C@H](Cc2c[nH]c3ccccc23)NC(=O)[C@H](CC(N)=O)NC(=O)[C@H](CCCNC(=N)N)NC(=O)CNC(=O)[C@H](CO)NC(=O)[C@H](Cc2c[nH]c3ccccc23)NC(=O)[C@H](Cc2ccc3ccccc3c2)NC(=O)CSC[C@@H](C(N)=O)NC1=O` [Compound 33] ({CH2CO}-[2Nal]WSGRNWVKWVC-NH2; thioether N-12) was 20.7 nM; that for `CC(C)[C@@H]1NC(=O)[C@H](Cc2c[nH]c3ccccc23)NC(=O)[C@H](CCCCN)NC(=O)[C@H](C(C)C)NC(=O)[C@H](Cc2c[nH]c3ccccc23)NC(=O)[C@H](CC(N)=O)NC(=O)[C@H](CCCNC(=N)N)NC(=O)CNC(=O)[C@H](CO)NC(=O)[C@H](c2ccccc2)NC(=O)[C@H](Cc2ccc3ccccc3c2)NC(=O)CSC[C@@H](C(N)=O)NC1=O` [Compound 49] ({CH2CO}-[2Nal][Phg]SGRNWVKWVC-NH2; thioether N-12) was 11.5 nM. Turning to `CC[C@H](C)[C@@H]1NC(=O)[C@H](Cc2c[nH]c3ccccc23)NC(=O)CSC[C@@H](C(N)=O)NC(=O)[C@H](C(C)C)NC(=O)[C@H](Cc2c[nH]c3ccccc23)NC(=O)[C@H](CCCCN)NC(=O)[C@H](C(C)C)NC(=O)[C@H](Cc2c[nH]c3ccccc23)NC(=O)[C@H](CC(N)=O)NC(=O)[C@H](CCCCN)NC(=O)CNC(=O)[C@H](CO)NC1=O` [Compound 16] ({CH2CO}-WISGKNWVKWVC-NH2; thioether N-12), the IC50 stood at 21 nM.

As for `CC[C@H](C)[C@@H]1NC(=O)[C@H](Cc2ccccc2)NC(=O)CSC[C@@H](C(N)=O)NC(=O)[C@H](C(C)C)NC(=O)[C@H](Cc2c[nH]c3ccccc23)NC(=O)[C@H](Cc2cncn2C)NC(=O)[C@H](C(C)C)NC(=O)[C@H](Cc2c[nH]c3ccccc23)NC(=O)[C@H](CC(N)=O)NC(=O)[C@H](CCCNC(=N)N)NC(=O)CNC(=O)[C@H](CO)NC1=O` [Compound 46] ({CH2CO}-FISGRNWV[His(π-Me)]WVC-NH2; thioether N-12), the IC50 worked out at 30.3 nM.

Regarding `CCCC[C@@H]1NC(=O)[C@H](Cc2c[nH]c3ccccc23)NC(=O)[C@H](CC(=O)O)NC(=O)[C@H](CCCCN)NC(=O)CNC(=O)[C@H](CO)NC(=O)[C@H]([C@@H](C)CC)NC(=O)[C@H](Cc2ccc3ccccc3c2)NC(=O)CSC[C@@H](C(N)=O)NC(=O)[C@H](C(C)C)NC(=O)[C@H](Cc2c[nH]c3ccccc23)NC(=O)[C@H](CCCCN)NC1=O` [Compound 57] ({CH2CO}-[2Nal]ISGKDW[Nle]KWVC-NH2; thioether N-12), the IC50 was determined as 15.6 nM. On the same count and under the same terms, the value for `CCCC[C@@H]1NC(=O)[C@H](Cc2c[nH]c3ccccc23)NC(=O)[C@H](CC(=O)O)NC(=O)[C@H](CCCNC(=N)N)NC(=O)CNC(=O)[C@H](CO)NC(=O)[C@H]([C@@H](C)CC)NC(=O)[C@H](Cc2ccc3ccccc3c2)NC(=O)CNC(=O)CSC[C@@H](C(N)=O)NC(=O)[C@H](C(C)C)NC(=O)[C@H](Cc2c[nH]c3ccccc23)NC(=O)[C@H](CCCCN)NC1=O` [Compound 75] ({CH2CO}-G[2Nal]ISGRDW[Nle]KWVC-NH2; thioether N-13) was 16.1 nM; that for `CC(C)[C@@H]1NC(=O)[C@H](Cc2c[nH]c3ccccc23)NC(=O)[C@H](CCCCN)NC(=O)[C@H](C(C)C)NC(=O)[C@H](Cc2c[nH]c3ccccc23)NC(=O)[C@H](CC(N)=O)NC(=O)[C@H](CCCNC(=N)N)NC(=O)CNC(=O)[C@H](CO)NC(=O)[C@H](Cc2ccc3ccccc3c2)NC(=O)[C@H](Cc2ccc(Cl)c(Cl)c2)NC(=O)CSC[C@@H](C(N)=O)NC1=O` [Compound 34] ({CH2CO}-[Phe(3,4-Cl2)][2Nal]SGRNWVKWVC-NH2; thioether N-12) was 28.1 nM. Same read-out and setting: the value for `CC[C@H](C)[C@@H]1NC(=O)[C@H](Cc2ccc3ccccc3c2)NC(=O)CSC[C@@H](C(N)=O)NC(=O)[C@H](C(C)(C)C)NC(=O)[C@H](Cc2c[nH]c3ccccc23)NC(=O)[C@H](CCCCN)NC(=O)[C@H](C(C)C)NC(=O)[C@H](Cc2c[nH]c3ccccc23)NC(=O)[C@H](CC(N)=O)NC(=O)[C@H](CCCNC(=N)N)NC(=O)CNC(=O)[C@H](CO)NC1=O` [Compound 53] ({CH2CO}-[2Nal]ISGRNWVKW[Tle]C-NH2; thioether N-12) was 15.9 nM. On the same count and under the same terms, the result for `CC(C)[C@@H]1NC(=O)[C@H](Cc2c[nH]c3ccccc23)NC(=O)[C@H](CCCNC(=N)N)NC(=O)[C@H](C(C)C)NC(=O)[C@H](Cc2c[nH]c3ccccc23)NC(=O)[C@H](CC(N)=O)NC(=O)[C@H](CCCNC(=N)N)NC(=O)CNC(=O)[C@H](CO)NC(=O)[C@H](CCCNC(=N)N)NC(=O)[C@H](Cc2ccccc2)NC(=O)CSC[C@@H](C(N)=O)NC1=O` [Compound 8] ({CH2CO}-FRSGRNWVRWVC-NH2; thioether N-12) reads 33.4 nM.

The values above are taken from patent US11149066B2, “Thrombospondin 1-binding peptide” (DAIICHI SANKYO COMPANY, LIMITED, priority 2016, dated 2021).
